Laboratory results published in the supplement of paper PMC10627819.
Values after ≈ are worked out from the molar mass of the structure shown.

What was measured:
[1] = test system: S. aureus DSM 20231; experiment: fitness (endpoint OD595 vs no drug) (fraction); higher = more growth
Method in brief: (§1)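 Volumes were 30 µl per well, or 55 µl for S. pneumoniae, in 384-well plates inoculated at OD595 0.01. Media were TSB, LB Lennox or CY at 37 °C, and OD595 was read every 30 min for 14 h with first-reading background subtraction. Fitness is the ratio of optical density at stationary-phase entry to the robust mean of no-drug controls. That ratio is capped at 1.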

[2] = test system: S. pneumoniae D39V; experiment: as above
Method in brief: as §1

[3] = test system: S. aureus Newman; experiment: as above
Method in brief: as §1

[4] = test system: S. aureus DSM 20231
[5] = test system: S. pneumoniae D39V
[6] = test system: S. aureus Newman
[7] = test system: B. subtilis 168; experiment: fitness (endpoint OD595 vs no drug) (fraction); higher = more growth
Method in brief: as §1

[8] = test system: B. subtilis 168
[9] = test system: S. aureus DSM 20231; experiment: Bliss interaction score (quartile over a dose matrix) (fitness difference); higher = more antagonism (negative = synergy)
Method in brief: (§2)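 At entry into stationary phase, OD595 was recorded and divided by the robust mean of the no-drug wells on that plate, with any value above 1 set to 1. This gives the fitness measure used throughout. Single-drug fitness was inferred from combination data, and the Bliss score, observed minus product-expected fitness, is shown as quartiles across technical, biological and donor/recipient replicates.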

[10] = test system: B. subtilis 168; experiment: as above
Method in brief: as §2

[11] = test system: S. pneumoniae D39V; experiment: as above
Method in brief: as §2

[12] = test system: S. aureus Newman; experiment: as above
Method in brief: as §2
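Throughout, for Bliss interaction score (quartile over a dose matrix): first quartile when negative (synergy) and third quartile when positive (antagonism).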

CC1(C)S[C@@H]2[C@H](NC(=O)[C@H](N)c3ccc(O)cc3)C(=O)N2[C@H]1C(=O)O [Amoxicillin]
fitness
Conditions	0.0008 µg/mL	0.0015 µg/mL	0.003 µg/mL	0.0625 µg/mL	0.125 µg/mL	0.25 µg/mL	0.5 µg/mL
[1]	–	–	–	0.606	0.504	0.0502	0.0082
[2]	0.972	0.945	0.923	–	–	–	–
[3]	–	–	–	0.896	0.878	0.85	0.865

Conditions	MIC [µg/mL]
[4]	0.556 (≈ 1.52 µM)
[5]	0.004 (≈ 0.0109 µM)
[6]	0.25 (≈ 0.684 µM)

CO/N=C(\C(=O)N[C@@H]1C(=O)N2C(C(=O)[O-])=C(C[N+]3(C)CCCC3)CS[C@H]12)c1csc(N)n1 [Cefepime]
Conditions	fitness
[1], 0.125 µg/mL	≥ 1
[1], 0.25 µg/mL	0.996
[1], 0.5 µg/mL	0.935
[2], 0.0078 µg/mL	≥ 1
[2], 0.0155 µg/mL	0.993
[2], 0.031 µg/mL	0.696
[3], 0.125 µg/mL	0.924
[3], 0.25 µg/mL	0.872
[3], 0.5 µg/mL	0.784
[7], 0.0625 µg/mL	0.872
[7], 0.125 µg/mL	0.729
[7], 0.25 µg/mL	0.432

Conditions	MIC [µg/mL]
[4]	0.556 (≈ 1.16 µM)
[5]	0.031 (≈ 0.0645 µM)
[6]	0.556 (≈ 1.16 µM)
[8]	0.25 (≈ 0.52 µM)

CCCCCCCCCC(=O)N[C@@H](Cc1c[nH]c2ccccc12)C(=O)N[C@H](CC(N)=O)C(=O)N[C@@H](CC(=O)O)C(=O)N[C@@H]1C(=O)NCC(=O)N[C@@H](CCCN)C(=O)N[C@@H](CC(=O)O)C(=O)N[C@H](C)C(=O)N[C@@H](CC(=O)O)C(=O)NCC(=O)N[C@H](CO)C(=O)N[C@@H]([C@H](C)CC(=O)O)C(=O)N[C@@H](CC(=O)c2ccccc2N)C(=O)O[C@@H]1C [Daptomycin]
fitness
Conditions	0.125 µg/mL	0.25 µg/mL	0.5 µg/mL	1 µg/mL	2 µg/mL	4 µg/mL
[1]	0.998	0.989	≥ 1	≥ 1	≥ 1	–
[2]	–	–	–	0.875	0.889	0.853
[3]	0.954	0.964	0.964	0.98	≥ 1	–
[7]	0.941	0.944	0.934	–	–	–

Conditions	MIC [µg/mL]
[4]	2 (≈ 1.23 µM)
[5]	8 (≈ 4.94 µM)
[6]	1 (≈ 0.617 µM)
[8]	0.5 (≈ 0.309 µM)

CCCCCCCCCC(=O)N[C@@H](Cc1c[nH]c2ccccc12)C(=O)N[C@H](CC(N)=O)C(=O)N[C@@H](CC(=O)O)C(=O)N[C@@H]1C(=O)NCC(=O)N[C@@H](CCCN)C(=O)N[C@@H](CC(=O)O)C(=O)N[C@H](C)C(=O)N[C@@H](CC(=O)O)C(=O)NCC(=O)N[C@H](CO)C(=O)N[C@@H]([C@H](C)CC(=O)O)C(=O)N[C@@H](CC(=O)c2ccccc2N)C(=O)O[C@@H]1C [Daptomycin] + Cc1cc(NS(=O)(=O)c2ccc(N)cc2)no1 [Sulfamethoxazol]
one replicate
Conditions	fitness
[1], first compound 0.125 µg/mL, partner 1 µg/mL	0.926
[1], first compound 0.125 µg/mL, partner 2 µg/mL	≥ 1
[1], first compound 0.125 µg/mL, partner 4 µg/mL	≥ 1
[1], first compound 0.25 µg/mL, partner 1 µg/mL	0.951
[1], first compound 0.25 µg/mL, partner 2 µg/mL	≥ 1
[1], first compound 0.25 µg/mL, partner 4 µg/mL	0.974
[3], first compound 0.5 µg/mL, partner 8 µg/mL	0.954
[3], first compound 1 µg/mL, partner 2 µg/mL	≥ 1
[3], first compound 1 µg/mL, partner 4 µg/mL	0.986
[3], first compound 1 µg/mL, partner 8 µg/mL	0.973
[3], first compound 2 µg/mL, partner 2 µg/mL	0.994
[3], first compound 2 µg/mL, partner 4 µg/mL	≥ 1
[3], first compound 2 µg/mL, partner 8 µg/mL	0.983
[7], first compound 0.125 µg/mL, partner 0.5 µg/mL	0.919
[7], first compound 0.25 µg/mL, partner 0.5 µg/mL	0.908
[7], first compound 0.5 µg/mL, partner 0.5 µg/mL	0.969
[7], first compound 1 µg/mL, partner 1 µg/mL	0.719
[7], first compound 1 µg/mL, partner 2 µg/mL	0.72
[7], first compound 1 µg/mL, partner 4 µg/mL	0.645

fitness
Conditions	partner 1 µg/mL	partner 2 µg/mL	partner 4 µg/mL
[1], first compound 0.5 µg/mL	0.914	≥ 1	≥ 1
[1], first compound 1 µg/mL	0.918	0.988	0.976
[1], first compound 2 µg/mL	0.913	0.988	0.963
[2], first compound 1 µg/mL	0.932	0.95	0.964
[2], first compound 2 µg/mL	0.924	0.901	0.935
[2], first compound 4 µg/mL	0.916	0.938	0.938
[3], first compound 0.125 µg/mL	0.967	0.99	≥ 1
[3], first compound 0.25 µg/mL	0.967	0.977	≥ 1
[3], first compound 0.5 µg/mL	0.992	0.971	≥ 1
[7], first compound 0.125 µg/mL	0.893	0.821	0.938
[7], first compound 0.25 µg/mL	0.895	0.885	0.856
[7], first compound 0.5 µg/mL	0.928	0.814	–

Conditions	Bliss interaction score
[9]	0.041
[10]	-0.0776
[11]	0.0745
[12]	0.0337

CCCCCCCCCC(=O)N[C@@H](Cc1c[nH]c2ccccc12)C(=O)N[C@H](CC(N)=O)C(=O)N[C@@H](CC(=O)O)C(=O)N[C@@H]1C(=O)NCC(=O)N[C@@H](CCCN)C(=O)N[C@@H](CC(=O)O)C(=O)N[C@H](C)C(=O)N[C@@H](CC(=O)O)C(=O)NCC(=O)N[C@H](CO)C(=O)N[C@@H]([C@H](C)CC(=O)O)C(=O)N[C@@H](CC(=O)c2ccccc2N)C(=O)O[C@@H]1C [Daptomycin] + Cc1ncc([N+](=O)[O-])n1CCO [Metronidazole]
fitness
Conditions	partner 0.625 µg/mL	partner 1.073 µg/mL	partner 1.25 µg/mL	partner 2.145 µg/mL	partner 2.5 µg/mL	partner 4.29 µg/mL	partner 5 µg/mL
[1], first compound 0.125 µg/mL	0.924	–	≥ 1	–	0.983	–	–
[1], first compound 0.25 µg/mL	0.932	–	≥ 1	–	≥ 1	–	–
[1], first compound 0.5 µg/mL	≥ 1	–	≥ 1	–	≥ 1	–	–
[1], first compound 1 µg/mL	≥ 1	–	≥ 1	–	≥ 1	–	–
[1], first compound 2 µg/mL	≥ 1	–	≥ 1	–	≥ 1	–	–
[2], first compound 1 µg/mL	–	0.846	0.977	0.786	≥ 1	0.777	0.993
[2], first compound 2 µg/mL	–	0.9	0.985	0.876	≥ 1	0.87	≥ 1
[2], first compound 4 µg/mL	–	0.949	0.93	0.888	0.97	0.928	0.976
[3], first compound 0.125 µg/mL	0.935	–	≥ 1	–	0.982	–	–
[3], first compound 0.25 µg/mL	0.951	–	≥ 1	–	0.994	–	–
[3], first compound 0.5 µg/mL	≥ 1	–	≥ 1	–	0.975	–	–
[7], first compound 0.125 µg/mL	0.942	–	0.892	–	0.93	–	–
[7], first compound 0.25 µg/mL	0.899	–	0.966	–	0.944	–	–
[7], first compound 0.5 µg/mL	0.935	–	0.904	–	0.874	–	–

fitness, one replicate
Conditions	partner 0.625 µg/mL	partner 0.781 µg/mL	partner 1.25 µg/mL	partner 1.562 µg/mL	partner 2.5 µg/mL	partner 3.124 µg/mL
[3], first compound 0.125 µg/mL	–	≥ 1	–	≥ 1	–	≥ 1
[3], first compound 0.25 µg/mL	–	≥ 1	–	≥ 1	–	≥ 1
[3], first compound 0.5 µg/mL	–	≥ 1	–	≥ 1	–	≥ 1
[7], first compound 1 µg/mL	0.736	–	0.806	–	0.754	–

Conditions	Bliss interaction score
[9]	0.0276
[10]	-0.0566
[11]	0.0723
[12]	0.0422
